What was measured:
[1] = target: Tumor necrosis factor (Homo sapiens) (UniProt P01375); test: Inhibition of TNF-alpha (unknown origin) relative to control; conditions: concentration not given here
[2] = Anti-inflammatory activity assessed as protein denaturation using bovine serum albumin relative to control; format: functional
[3] = Inhibition of MAPK p38 (unknown origin); design: species or system Homo sapiens
[4] = Antioxidant activity assessed as DPPH radical scavenging activity incubated for 20 mins relative to control; format: functional
Rattus norvegicus [5] = test: Anti-inflammatory activity in Carrageenan-induced rat paw edema in Wistar rat assessed as reduction in inhibition of edema measured after 4 hrs relative to control; format: functional; design: scale not given: the % may be the effect or the level left
Mus musculus [6] = test: Anti-inflammatory activity in Carrageenan-induced paw edema in […] mouse model assessed as inhibition of edema at 200 mg/kg, po relative to control; format: functional; design: scale not given: the % may be the effect or the level left
Rattus norvegicus [7] = test: Anti-inflammatory activity in Wistar rat assessed as reduced hind paw edema at 25 mg/kg relative to control; format: functional; design: scale not given: the % may be the effect or the level left
Rattus norvegicus [8] = test: Anti-inflammatory activity against formalin-induced foot paw edema in Wistar rat at 5 mg/kg, po assessed as inhibition of edema measured after 4 hr relative to control; format: functional
Mus musculus [9] = test: Anti-inflammatory activity against dimethylbenzene-induced auricular edema Kunming mouse model assessed as inhibition of ear edema at 100 mg/kg, po administered once daily relative to control; format: functional; design: scale not given: the % may be the effect or the level left
Rattus norvegicus [10] = test: Anti-inflammatory activity against formalin-induced foot paw edema in PO dosed rat at 10 mg/kg assessed as inhibition of edema measured after 4 hr relative to control; format: functional
Rattus norvegicus [11] = test: Anti-ulcerative activity in aspirin induced Wistar rat ulcer model assessed as inhibition of ulcer index at 20 mg/kg,po; format: functional
Mus musculus [12] = test: Anti-inflammatory activity in Carrageenan-induced paw edema mouse model assessed as inhibition of granuloma measured after 24 hrs relative to control; format: functional
Rattus norvegicus [13] = test: Anti-ulcerative activity in Carrageenan-induced Sprague-Dawley rat ulcer model assessed as inhibition of ulcer index at 10 mg/kg,po; format: functional
Mus musculus [14] = test: Anti-inflammatory activity against dimethylbenzene-induced auricular edema Kunming mouse model assessed as inhibition of ear edema at 50 mg/kg, po administered once daily relative to control; format: functional; design: scale not given: the % may be the effect or the level left
Rattus norvegicus [15] = test: Anti-inflammatory activity in Carageenan-induced paw edema Wistar rat model assessed as reduction in paw edema volume relative to control; format: functional; design: scale not given: the % may be the effect or the level left
Rattus norvegicus [16] = test: Anti-inflammatory activity against formalin-induced foot paw edema in PO dosed rat at 10 mg/kg assessed as inhibition of edema measured after 5 hr relative to control; format: functional; design: scale not given: the % may be the effect or the level left
RAW264.7 [17] = test: Anti-inflammatory activity in mouse RAW264.7 cells assessed as inhibition of LPS-induced TNFalpha production measured after 24 hrs by EIA method; format: functional, cell-based; conditions: RAW264.7, 24 h
RAW264.7 [18] = test: Anti-inflammatory activity in mouse RAW264.7 cells assessed as inhibition of LPS-induced IL-6 production measured after 24 hrs by EIA method; format: functional, cell-based; conditions: RAW264.7, 24 h
RAW264.7 [19] = test: Anti-inflammatory activity in mouse RAW264.7 cells assessed as inhibition of LPS-induced NO production; format: functional, cell-based
Rattus norvegicus [20] = test: Anti-inflammatory activity against carrageenan-induced Albino Wistar rat paw edema model assessed as inhibition of rat paw edema at 50 mg/kg, po after 3 hrs relative to control; format: functional; design: scale not given: the % may be the effect or the level left
Rattus norvegicus [21] = test: Anti-inflammatory activity in Carrageenan-induced-Wistar albino rat model assessed as reduction in volume of paw edema measured after 3 hrs; format: functional
[22] = Anti-inflammatory activity assessed as protein denaturation using egg albumin at 100 uM relative to control; format: functional
[23] = Anti-inflammatory activity assessed as protein denaturation using bovine serum albumin at 500 uM relative to control; format: functional
[24] = Anti-inflammatory activity assessed as protein denaturation using bovine serum albumin at 100 uM relative to control; format: functional
[25] = Anti-inflammatory activity assessed as protein denaturation using egg albumin at 250 uM relative to control; format: functional
[26] = Anti-inflammatory activity assessed as protein denaturation using bovine serum albumin at 250 uM relative to control; format: functional
[27] = Anti-inflammatory activity assessed as protein denaturation using egg albumin at 500 uM relative to control; format: functional
Mus musculus [28] = test: Anti-inflammatory activity in Swiss albino mouse of Carrageenan-induced paw edema assessed as reduction in paw edema at 100 mg/kg measured after 3 hr (reference value: 130 +/- 3.8 uL); format: functional
Mus musculus [29] = test: Anti-inflammatory activity in Swiss albino mouse of Carrageenan-induced paw edema assessed as reduction in inflammation at 100 mg/kg measured after 3 hr relative to control; format: functional; design: scale not given: the % may be the effect or the level left
Mus musculus [30] = test: Anti-inflammatory activity in Swiss albino mouse of Carrageenan-induced pleurisy assessed as reduction in total leukocytes at 50 mg/kg, po relative to control; format: functional; design: scale not given: the % may be the effect or the level left
Mus musculus [31] = test: Anti-inflammatory activity in Swiss albino mouse of Carrageenan-induced paw edema assessed as reduction in inflammation at 100 mg/kg measured after 2 hr relative to control; format: functional; design: scale not given: the % may be the effect or the level left
Mus musculus [32] = test: Anti-inflammatory activity in Swiss albino mouse of Carrageenan-induced pleurisy assessed as reduction in TNFalpha levels at 100 mg/kg, po; format: functional
Mus musculus [33] = test: Anti-inflammatory activity in Swiss albino mouse of Carrageenan-induced pleurisy assessed as reduction in migration of leukocytes at 100 mg/kg, po (reference value: 5.2 +/- 0.34); format: functional
Mus musculus [34] = test: Anti-inflammatory activity in Swiss albino mouse of Carrageenan-induced paw edema assessed as reduction in paw edema at 100 mg/kg measured after 2 hr (reference value: 140 +/- 6.3 uL); format: functional
Mus musculus [35] = test: Anti-inflammatory activity in Swiss albino mouse of Carrageenan-induced paw edema assessed as reduction in paw edema at 100 mg/kg measured after 4 hr (reference value: 126.7 +/- 6.9 uL); format: functional
Mus musculus [36] = test: Anti-inflammatory activity in Swiss albino mouse of Carrageenan-induced paw edema assessed as reduction in inflammation at 100 mg/kg measured after 1 hr relative to control; format: functional; design: scale not given: the % may be the effect or the level left
Mus musculus [37] = test: Anti-inflammatory activity in Swiss albino mouse of Carrageenan-induced pleurisy assessed as reduction in migration of leukocytes at 100 mg/kg, po relative to control; format: functional; design: scale not given: the % may be the effect or the level left
Mus musculus [38] = test: Anti-inflammatory activity in Swiss albino mouse of Carrageenan-induced paw edema assessed as reduction in inflammation at 100 mg/kg measured after 4 hr relative to control; format: functional; design: scale not given: the % may be the effect or the level left
Mus musculus [39] = test: Anti-inflammatory activity in Swiss albino mouse of Carrageenan-induced paw edema assessed as reduction in paw edema at 100 mg/kg measured after 1 hr (reference value: 142.5 +/- 5.6 uL); format: functional
RAW264.7 [40] = test: Anti-inflammatory activity in mouse RAW264.7 cells assessed as inhibition of LPS-induced reduction in cytokine levels relative to control; format: functional; design: scale not given: the % may be the effect or the level left
Mus musculus [41] = test: Analgesic activity in PO dosed Swiss albino mouse assessed as protection of paw edema measured after 2 hrs at 20 mg/kg relative to control; format: functional
Rattus norvegicus [42] = test: Anti-ulcerative activity in Carrageenan-induced paw edema Swiss albino rat ulcer model assessed as inhibition of ulcer index at 10 mg/kg,po; format: functional
RAW264.7 [43] = test: Anti-inflammatory activity in mouse RAW264.7 cells assessed as inhibition of LPS-induced TNFalpha production relative to control; format: functional; design: scale not given: the % may be the effect or the level left
RAW264.7 [44] = test: Anti-inflammatory activity in mouse RAW264.7 cells assessed as inhibition of LPS-induced IL-6 production preincubated for 1 hr followed by LPS addition and measured after 24 hrs by EIA relative to control; format: functional; design: scale not given: the % may be the effect or the level left

Sequence of Tumor necrosis factor (Homo sapiens) (P01375 whole entry, looked up): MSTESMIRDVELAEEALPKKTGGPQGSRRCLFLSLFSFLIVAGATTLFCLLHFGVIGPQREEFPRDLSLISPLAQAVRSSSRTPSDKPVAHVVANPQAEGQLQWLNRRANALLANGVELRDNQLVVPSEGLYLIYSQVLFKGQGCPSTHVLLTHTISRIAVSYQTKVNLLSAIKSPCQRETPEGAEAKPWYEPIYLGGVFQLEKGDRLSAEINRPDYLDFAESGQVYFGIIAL

## O=C(Nc1ccc(Cl)cc1)c1ccc(Nc2ncnc3c2cnn3-c2ccccc2)cc1
[1]
  inhibition: 62.3%
[2]
  Activity: 82.3%
[3]
  IC50: 1.63 µM
[4]
  Activity: 74.9%
Rattus norvegicus [5]
  Activity: 83.73%

## Cc1ccc(-c2cc(C(F)(F)F)nn2-c2ccc(S(N)(=O)=O)cc2)cc1 [CELECOXIB]
Mus musculus [6]
  Activity: 17.5%
Rattus norvegicus [7]
  Activity: 57.14%
Rattus norvegicus [8]
  inhibition in vivo at 5 mg/kg: 46.4%
Mus musculus [9]
  Activity: 36%
Rattus norvegicus [10]
  inhibition in vivo at 10 mg/kg: 46.4%
Rattus norvegicus [11]
  UI: 2.99
Mus musculus [12]
  inhibition (INH): 8.6%
Rattus norvegicus [13]
  UI: 2.93
Mus musculus [14]
  Activity: 79%
Rattus norvegicus [15]
  Activity: 87.59%
Rattus norvegicus [16]
  Activity: 69%

## CCCCc1nn(C)c2c(NCCCN3CCOCC3)nc(/C=C/c3cc(OC)c(OC)c(OC)c3)nc12
RAW264.7 [17]
  IC50: 4.38 µM
RAW264.7 [18]
  IC50: 2.64 µM
RAW264.7 [19]
  IC50: 5.63 µM

## NS(=O)(=O)c1ccc(N/N=C/c2cn(-c3ccc(S(N)(=O)=O)cc3)nc2-c2ccc(Cl)cc2)cc1
Rattus norvegicus [20]
  Activity: 97.69%
Rattus norvegicus [21]
  ED50: 8 mg/kg
Rattus norvegicus [13]
  UI: 2.72

## COc1ccc(NC(=O)c2cc(-c3ccncc3)n[nH]2)cc1
[22]
  Activity: 60%
[23]
  Activity: 90%
[24]
  Activity: 65%
[25]
  Activity: 85%
[26]
  Activity: 80%
[27]
  Activity: 95%

## CN1CCN(C(=O)c2cnn(-c3ccccc3)c2)CC1
Mus musculus [28]
  Activity: 85.7 µL
Mus musculus [29]
  Activity: 34%
Mus musculus [30]
  Activity: 34.5%
Mus musculus [31]
  Activity: 37%
Mus musculus [32]
  Activity: 2.6
Mus musculus [33]
  Activity: 3.3
Mus musculus [34]
  Activity: 88.6 µL
Mus musculus [35]
  Activity: 77.1 µL
Mus musculus [36]
  Activity: 19%
Mus musculus [37]
  Activity: 36.5%
Mus musculus [38]
  Activity: 39%
Mus musculus [39]
  Activity: 115.7 µL

## O=c1[nH]c(-c2ccccn2)nc2sc3c(c12)CCCC3
RAW264.7 [40]
  Activity: 70%

## CC1=NN(c2ccc(Cl)cc2)C(=O)/C1=N\Nc1ccc(-c2nc3ccccc3[nH]2)cc1
Mus musculus [41]
  Activity: 67%
Rattus norvegicus [42]
  UI: 0.53

## O=c1[nH]c(CCl)nc2sc3c(c12)CCCC3
RAW264.7 [43]
  Activity: 10%
RAW264.7 [44]
  Activity: 90%

From ChEMBL document CHEMBL5233249, “Recent advancements in the development of heterocyclic anti-inflammatory agents” (Eur J Med Chem, 2020)
